Results published in patent publication US4347319A, “Microbiological epoxidation process” (priority 1980, dated 1982).

Tests used:
[1] = tested on: Candida utilis ATCC 26387; experiment: Oxidation of sec-alcohols to ketones by cell suspensions of yeasts; assay type: cell-based; settings: sec-alcohol to methyl ketone
[2] = tested on: purified secondary alcohol dehydrogenase from Pichia sp. NRRL Y-11,328; experiment: Substrate specificity, electron acceptor and stoichiometry of purified yeast SADH; assay type: biochemical; settings: examined spectrophotometrically
[3] = tested on: cell extract of Torulopsis sp. strain A1 NRRL-Y-11,419; experiment: Oxidation of secondary alcohols to methylketone by cell extracts of yeasts; assay type: biochemical; settings: methanol-grown; cell extract + NAD^+; sec. alcohol to methyl ketone; gas chromatography
[4] = tested on: cell extract of Hansenula polymorpha ATCC 26,012; experiment: as above; assay type: biochemical; settings: methanol-grown; cell extract + NAD^+; sec. alcohol to methyl ketone; gas chromatography
[5] = tested on: Methylobacter vinelandii CRL M5Y NRRL B-11,218; experiment: Sec. alcohol oxidation by cell suspensions of methanol-grown cells; assay type: cell-based; settings: sec. alcohol to methyl ketone
Description: (§1) In this example, the procedure of Example 1 was repeated except that a plurality of the methane-utilizing methylotrophic microorganisms of the invention were each aerobically grown in a methanol-containing nutrient medium instead of a methane-containing medium. The nutrients in the medium were the same as indicated in Example 1 except that 0.4% v/v methanol was used as the alcohol dehydrogenase enzyme inducer and major source of carbon and energy for growth. Following growth the cells were harvested and washed as described in Example 1. The resting cells of the induced methanol-grown methylotrophic microorganisms were then contacted with a […] under aerobic conditions in a buffered solution by the procedure described in Example 1.

[6] = tested on: Methylocystis parvus CRL 18 NRRL B-11,204; experiment: as above; assay type: cell-based; settings: sec. alcohol to methyl ketone
Description: as §1

[7] = tested on: Methylomonas methanica CRL M4P NRRL B-11,205; experiment: as above; assay type: cell-based; settings: sec. alcohol to methyl ketone
Description: as §1

[8] = tested on: Methylococcus capsulatus CRL M1 NRRL B-11,219; experiment: as above; assay type: cell-based; settings: sec. alcohol to methyl ketone
Description: as §1

[9] = tested on: Methylobacterium organophilum CRL 26 NRRL B-11,222; experiment: as above; assay type: cell-based; settings: sec. alcohol to methyl ketone
Description: as §1

[10] = tested on: Methylobacter chroococcum CRL M6 NRRL B-11,214; experiment: as above; assay type: cell-based; settings: sec. alcohol to methyl ketone
Description: as §1

[11] = tested on: Methylosinus trichosporium CRL 15 NRRL B-11,202; experiment: as above; assay type: cell-based; settings: sec. alcohol to methyl ketone
Description: as §1

[12] = tested on: Kloeckera sp. Strain A2 (NRRLY-11,420); experiment: Oxidation of sec-alcohols to ketones by cell suspensions of yeasts; assay type: cell-based; settings: sec-alcohol to methyl ketone
[13] = tested on: cell extract of Pichia sp. NRRL-Y-11,328; experiment: Oxidation of secondary alcohols to methylketone by cell extracts of yeasts; assay type: biochemical; settings: methanol-grown; cell extract + NAD^+; sec. alcohol to methyl ketone; gas chromatography
Pichia sp. NRRL-Y-11328 = experiment: Oxidation of sec-alcohols to ketones by cell suspensions of yeasts; assay type: cell-based; settings: sec-alcohol to methyl ketone
[14] = tested on: Hansenula polymorpha ATCC 26012; experiment: as above; assay type: cell-based; settings: sec-alcohol to methyl ketone
[15] = tested on: cell extract of Kloeckera sp. strain A2 NRRL-Y-11,420; experiment: Oxidation of secondary alcohols to methylketone by cell extracts of yeasts; assay type: biochemical; settings: methanol-grown; cell extract + NAD^+; sec. alcohol to methyl ketone; gas chromatography
[16] = tested on: Torulopsis sp. Strain A1 (NRRLY-11,419); experiment: Oxidation of sec-alcohols to ketones by cell suspensions of yeasts; assay type: cell-based; settings: sec-alcohol to methyl ketone
[17] = tested on: cell extract of Candida utilis ATCC 26,387; experiment: Oxidation of secondary alcohols to methylketone by cell extracts of yeasts; assay type: biochemical; settings: methanol-grown; cell extract + NAD^+; sec. alcohol to methyl ketone; gas chromatography
[18] = tested on: Methylomonas agile (CRL 22 PM9) NRRL B-11,209; experiment: Oxidation by washed cell suspensions of methane-grown cells; assay type: cell-based
Description: (§2) The pH of the nutrient medium was adjusted to 7.0 by the addition of acid or base and 50 ml samples of the nutrient medium were charged into a plurality of 300 ml shaker flasks. The shaker flasks were inoculated with an inoculating loop of cells from an agar plate containing homogeneous colonies of the microorganisms on the plate (the purity of the isolates was confirmed by microscopic examination. The isolates had been maintained on agar plates under an atmosphere of methane and air having a 1:1 v/v gas ratio which had been transferred evey two weeks. The gaseous phase of the inoculated flasks was then replaced with a gas mixture comprised of methane and air having a ratio of 1:1 on a v/v basis. The inoculated flasks were sealed air tight and were incubated on a rotary shaker of orbital radius 2.5 cm at 250 rpm and at 30° C. for two days until turbidity in the medium had developed.
(§3) The cells were harvested by centrifugation at 10,000×g. at 4° C. for 30 minutes. The cell pellet was washed twice with a 0.15 M phosphate buffer at a pH of 7.0 (containing 0.002 M MgCl2). The washed cells were then suspended in a 0.15 M phosphate buffer at pH 7.0.
(§4) A 0.5 ml sample of each washed cell suspension (2 mg cells) was put into 10 ml vials at 4° C. which were sealed with a rubber cap. The gaseous phase of the vials was removed with vacuum and then was replaced with a gas mixture of the oxidative substrate (e.g., methane) and oxygen at a 1:1 v/v ratio. The vials were then incubated at 30 ° C. on a rotary shaker at 300 rpm. Samples of product (3 μl) were withdrawn periodically with a microsyringe and the products were analyzed by gas chromatography (ionization flame detector column).
(§5) The newly discovered and isolated microorganism strains of the present invention were each grown aerobically in the presence of methane in the manner described above. The methane-grown microbial cells were then washed, recovered and put to use in oxidizing an oxidative substrate by the procedure described above except in the case of a liquid substrate 10 μl of the substrate were used.

[19] = tested on: Methylococcus minimus (CRL 24 PM12) NRRL B-11,220; experiment: as above; assay type: cell-based
Description: as §2, §3, §4, §5

[20] = tested on: Methylomonas streptobacterium (CRL 17 PM3) NRRL B-11,208; experiment: as above; assay type: cell-based
Description: as §2, §3, §4, §5

[21] = tested on: Methylococcus capsulatus (CRL M1) NRRL B-11,219; experiment: as above; assay type: cell-based
Description: as §2, §3, §4, §5

[22] = tested on: Methylobacterium organophilum (CRL 26 R6) NRRL B-11,222; experiment: as above; assay type: cell-based
Description: as §2, §3, §4, §5

[23] = tested on: Methylosinus sporium (CRL 16 PM2) NRRL B-11,203; experiment: as above; assay type: cell-based
Description: as §2, §3, §4, §5

[24] = tested on: Methylobacter chroococcum (CRL M6) NRRL B-11,214; experiment: as above; assay type: cell-based
Description: as §2, §3, §4, §5

[25] = tested on: Methylococcus capsulatus (CRL 25 PM13) NRRL B-11,221; experiment: as above; assay type: cell-based
Description: as §2, §3, §4, §5

[26] = tested on: Methylomonas albus (CRL M8Y) NRRL B-11,207; experiment: as above; assay type: cell-based
Description: as §2, §3, §4, §5

[27] = tested on: Methylobacter vinelandii (CRL M5Y) NRRL B-11,218; experiment: as above; assay type: cell-based; settings: methane-grown washed cells, 30° C.; methane to methanol, alkene to 1,2-epoxide
Description: as §2, §3, §4, §5

[28] = tested on: Methylomonas methanica (CRL M4P) NRRL B-11,205; experiment: as above; assay type: cell-based
Description: as §2, §3, §4, §5

[29] = tested on: Methylobacter bovis (CRL 19 PM5) NRRL B-11,217; experiment: as above; assay type: cell-based
Description: as §2, §3, §4, §5

[30] = tested on: Methylobacter chroococcum (CRL 23 PM8) NRRL B-11,215; experiment: as above; assay type: cell-based
Description: as §2, §3, §4, §5

[31] = tested on: Methylosinus trichosporium (CRL 15 PM1) NRRL B-11,202; experiment: as above; assay type: cell-based
Description: as §2, §3, §4, §5

[32] = tested on: Methylobacter bovis (CRL M1Y) NRRL B-11,216; experiment: as above; assay type: cell-based
Description: as §2, with “The inoculated flasks were sealed air tight and were incubated on a rotary shaker of orbital radius 2.5 cm at 250 rpm and at 30° C. for two days until turbidity in the medium had developed.” left out
as §3, §4, §5

[33] = tested on: Methylomonas rosaceus (CRL M10P) NRRL B-11,212; assay type: cell-based
Description: as §2, §3, §4, §5

What does the source list for `CCCC(C)O` (stereo not drawn) [2-Pentanol]?
Conversion Rate ([1]; growth substrate Ethanol): 1.0 μmoles/hr/mg of protein; Conversion Rate ([1]; growth substrate Methanol): 1.5 μmoles/hr/mg of protein; Conversion Rate ([1]; growth substrate Methylamine): 1.2 μmoles/hr/mg of protein; Conversion Rate ([1]; growth substrate Methylformate): 1.3 μmoles/hr/mg of protein; Conversion Rate ([1]; growth substrate Propylamine): 0.9 μmoles/hr/mg of protein; oxidation by the purified enzyme [2]: catalyzed the oxidation; Conversion Rate [3]: 1.0 μmoles/hr/mg Protein; Conversion Rate [4]: 1.0 μmoles/hr/mg Protein; Conversion Rates [5]: 0.05 μmoles/hr/mg protein; Conversion Rates [6]: 0.07 μmoles/hr/mg protein; Conversion Rates [7]: 0.05 μmoles/hr/mg protein; Conversion Rates [8]: 0.24 μmoles/hr/mg protein; Conversion Rates [9]: 1.0 μmoles/hr/mg protein; Conversion Rates [10]: 0.08 μmoles/hr/mg protein; Conversion Rates [11]: 0.09 μmoles/hr/mg protein; Conversion Rate ([12]; growth substrate Ethanol): 1.0 μmoles/hr/mg of protein; Conversion Rate ([12]; growth substrate Methanol): 1.2 μmoles/hr/mg of protein; Conversion Rate ([12]; growth substrate Methylamine): 1.0 μmoles/hr/mg of protein; Conversion Rate ([12]; growth substrate Methylformate): 1.2 μmoles/hr/mg of protein; Conversion Rate ([12]; growth substrate Propylamine): 0.92 μmoles/hr/mg of protein; Conversion Rate [13]: 1.2 μmoles/hr/mg Protein; Conversion Rate (Pichia sp. NRRL-Y-11328; growth substrate Ethanol): 1.0 μmoles/hr/mg of protein; Conversion Rate (Pichia sp. NRRL-Y-11328; growth substrate Methanol): 1.2 μmoles/hr/mg of protein; Conversion Rate (Pichia sp. NRRL-Y-11328; growth substrate Methylamine): 0.72 μmoles/hr/mg of protein; Conversion Rate (Pichia sp. NRRL-Y-11328; growth substrate Methylformate): 0.98 μmoles/hr/mg of protein; Conversion Rate (Pichia sp. NRRL-Y-11328; growth substrate Propylamine): 0.60 μmoles/hr/mg of protein; Conversion Rate ([14]; growth substrate Ethanol): 1.1 μmoles/hr/mg of protein; Conversion Rate ([14]; growth substrate Methanol): 1.4 μmoles/hr/mg of protein; Conversion Rate ([14]; growth substrate Methylamine): 1.2 μmoles/hr/mg of protein; Conversion Rate ([14]; growth substrate Methylformate): 1.3 μmoles/hr/mg of protein; Conversion Rate ([14]; growth substrate Propylamine): 0.82 μmoles/hr/mg of protein; Conversion Rate [15]: 1.2 μmoles/hr/mg Protein; Conversion Rate ([16]; growth substrate Ethanol): 1.2 μmoles/hr/mg of protein; Conversion Rate ([16]; growth substrate Methanol): 1.0 μmoles/hr/mg of protein; Conversion Rate ([16]; growth substrate Methylamine): 0.9 μmoles/hr/mg of protein; Conversion Rate ([16]; growth substrate Methylformate): 1.1 μmoles/hr/mg of protein; Conversion Rate ([16]; growth substrate Propylamine): 0.62 μmoles/hr/mg of protein; Conversion Rate [17]: 0.82 μmoles/hr/mg Protein

`C=CCC` [Butene-1] was tested. Which “Oxidative Conversion Rates” value [18] did it give?
The value was 0.5.

What about the “Oxidative Conversion Rates” value [19] of the same compound?
The value was 1.5.

And the “Oxidative Conversion Rates” value [20]?
The value was 2.5.

And the “Oxidative Conversion Rates” value [21]?
Its value is 1.3.

And the “Oxidative Conversion Rates” value [22]?
Its value is 0.9.

And the “Oxidative Conversion Rates” value [23]?
Its value is 1.2.

What about the “Oxidative Conversion Rates” value [24] of the same compound?
The value was 0.7.

And the “Oxidative Conversion Rates” value [25]?
The value was 1.9.

And the “Oxidative Conversion Rates” value [26]?
The value was 1.8.

And the “Oxidative Conversion Rates” value [27]?
Its value is 0 μmole/hr/mg protein.

What about the “Oxidative Conversion Rates” value [28] of the same compound?
The value was 2.8.

And the “Oxidative Conversion Rates” value [29]?
Its value is 1.3.

What about the “Oxidative Conversion Rates” value [30] of the same compound?
The value was 0.82.

What about the “Oxidative Conversion Rates” value [31] of the same compound?
The value was 1.8.

What about the “Oxidative Conversion Rates” value [32] of the same compound?
The value was 1.1.

And the “Oxidative Conversion Rates” value [33]?
Its value is 3.1.
